Measured values reported in US20020132776A1, “Inhibitors of transglutaminase” (N-Zyme Biotech GmbH, priority 2000, published 2002).
Where a SMILES comes first, the peptide text is derived from it. The star is where a group is joined. Cbz = O=C(OCc1ccccc1)*; ClAc = O=C(CCl)*; For = O=C*

What was measured:
Format in all cases: biochemical
[1] = target: T1, factor XIIIa (Homo sapiens, UniProt P00488); assay: Factor XIIIa fibrin coagulation/crosslinking inhibitor test (Example 31); details: inhibitor concentration range 0 to 10 μm; absorption of clots at 405 nm
T1 sequence (P00488 39-732 limits assumed): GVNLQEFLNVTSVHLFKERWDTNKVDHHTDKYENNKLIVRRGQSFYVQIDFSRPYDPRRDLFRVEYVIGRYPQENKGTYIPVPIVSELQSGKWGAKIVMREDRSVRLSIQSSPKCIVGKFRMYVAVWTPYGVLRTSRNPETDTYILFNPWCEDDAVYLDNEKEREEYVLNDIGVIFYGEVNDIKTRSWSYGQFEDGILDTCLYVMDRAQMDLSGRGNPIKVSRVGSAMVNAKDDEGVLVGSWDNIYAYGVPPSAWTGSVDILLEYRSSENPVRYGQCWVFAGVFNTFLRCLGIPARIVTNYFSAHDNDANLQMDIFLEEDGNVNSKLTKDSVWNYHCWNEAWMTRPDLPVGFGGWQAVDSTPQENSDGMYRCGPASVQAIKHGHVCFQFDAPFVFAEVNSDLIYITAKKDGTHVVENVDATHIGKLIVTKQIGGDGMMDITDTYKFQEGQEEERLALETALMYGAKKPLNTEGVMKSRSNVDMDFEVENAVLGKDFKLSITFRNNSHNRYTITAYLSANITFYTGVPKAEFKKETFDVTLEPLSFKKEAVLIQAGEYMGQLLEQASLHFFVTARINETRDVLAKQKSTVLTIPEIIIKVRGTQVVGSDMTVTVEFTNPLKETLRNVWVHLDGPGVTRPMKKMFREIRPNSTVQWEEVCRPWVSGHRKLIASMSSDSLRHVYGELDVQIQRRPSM
Experimental: The inhibitor tests were carried out in microtiter plates (0.2 ml). This entailed examination of the ability of the plasma transglutaminase to catalyze the coagulation of fibrin with and without inhibitor [modified method of Tymiak et al., J. Antibiot., 46, 204-206 (1993)].
40 μl of bovine fibrinogen (3 mg/ml, Sigma) in 25 mm Tris-HCl with 100 mm NaCl and 2.5 mm Ca^2+, pH 7.5, were incubated with 2 U/ml bovine thrombin (Sigma) at 25° C. for 10 min.
In a second mixture in parallel therewith, likewise 2 U/ml bovine thrombin (Sigma) were added to 20 μg/ml FXIII in 25 mm Tris-HCl with 100 mm NaCl and 2.5 mm Ca^2+, pH 7.5, and incubated at 25° C. for 10 min. The γ-aldehyde inhibitor concentration was then adjusted so that the measurements covered a concentration range from 0 to 10 μm. The reaction mixture was incubated at 25° C. for 15 min.
The two mixtures were combined and, after an incubation at 30° C. for 15 min, 150 μl of urea (8 M) were added. The absorption of the clots was measured at 405 nm.

[2] = target: T2, guinea pig liver transglutaminase (Cavia cutleri, UniProt P08587); assay: Guinea pig liver transglutaminase, incorporation of hydroxylamine into CBZ-Gln-Gly (Example 31); details: 0-10 μM inhibitor, 15 min at 25° C.
T2 sequence (P08587 1-690): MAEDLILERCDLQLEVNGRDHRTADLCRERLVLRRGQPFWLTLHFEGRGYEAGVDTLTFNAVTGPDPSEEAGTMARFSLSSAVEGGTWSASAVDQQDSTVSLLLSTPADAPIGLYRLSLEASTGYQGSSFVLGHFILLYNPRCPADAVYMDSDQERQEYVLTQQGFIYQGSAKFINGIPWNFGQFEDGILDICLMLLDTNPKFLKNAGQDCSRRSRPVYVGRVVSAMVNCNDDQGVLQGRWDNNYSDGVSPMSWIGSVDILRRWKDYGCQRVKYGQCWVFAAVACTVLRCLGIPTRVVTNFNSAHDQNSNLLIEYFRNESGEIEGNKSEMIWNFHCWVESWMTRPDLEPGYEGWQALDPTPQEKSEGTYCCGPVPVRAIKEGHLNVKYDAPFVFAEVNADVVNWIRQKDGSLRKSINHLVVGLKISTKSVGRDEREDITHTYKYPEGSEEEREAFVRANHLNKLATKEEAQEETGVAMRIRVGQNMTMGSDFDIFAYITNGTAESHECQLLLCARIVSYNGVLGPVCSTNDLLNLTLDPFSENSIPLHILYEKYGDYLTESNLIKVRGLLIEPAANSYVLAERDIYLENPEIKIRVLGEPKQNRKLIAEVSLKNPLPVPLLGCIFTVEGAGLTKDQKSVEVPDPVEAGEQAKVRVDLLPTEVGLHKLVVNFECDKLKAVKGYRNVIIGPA
Experimental: The inhibitor tests were carried out in analogy to the factor XIII test in microtiter plates. In this case, the incorporation of hydroxylamine into carbobenzoxy-L-glutaminylglycine (CBZ-Gln-Gly) was investigated [modified method of Grossowicz et al., J. Biol. Chem., 187, 111 -125 (1950)].
25 μl (0-10 μM) of inhibitor were added to 25 μl (5.0 U/ml) of guinea pig liver transglutaminase (Sigma) and incubated at 25° C. for 15 min. Then 100 μl of 0.2 M tris-acetate buffer, pH 6.0, with 30 mm CBZ-Gln-Gly, 0.1 M hydroxylamine and 10 mM glutathione were pipetted in. After 10 min at 37° C., the absorption at 492 nm was measured using a microtiter plate reader.

[3] = target: T2, guinea pig liver transglutaminase; assay: Inhibition of tissue transglutaminase, hydroxamate assay (Example 29); details: 20 min preincubation at 37° C., first block r5-r22
Experimental: The inhibitors are dissolved in dimethyl sulfoxide (DMSO) at a concentration of 100 mM. Solutions having a concentration of 10 mM, 1 mM and 0.1 mM are prepared by dilution with transglutaminase buffer (50 mM Tris-HCl, pH 7.0, 5 mM CaCl2, 2 mM DTT).
Afterwards, inhibition takes place by incubation (20 minutes at 37° C.) of 25 μL of a transglutaminase solution (bacterial transglutaminase or guinea pig liver transglutaminase, respectively) with 25 μL of the respective inhibitor solution. Immediately after the incubation has finished, 100 μL of substrate solution (0.1 mM hydroxylamine, 30 mM CBZ-Gln-Gly-OH, 2 mM DTT, 5 mM CaCl2 in 50 mM Tris-HCl, pH 7.0) are added and it is incubated for 10 minutes at 37° C. The reaction is stopped with 100 μL of a solution of 4% (w/v) HCl, 1.7% (w/v) FeCl3 and 4% (w/v) trichloroacetic acid [see Grossowicz et al., J. Biol. Chem. 187, 111-125, 1950]. After centrifugation (10 minutes, 10,000× g) the extinction of the supernatant solution at 492 nm in the microtiter plate reader and, thus, the remaining activity of the transglutaminase is determined.

| Molecule | Inhibition of tissue transglutaminase at an inhibitor concentration of 0.05 mM ([3]; 0.05 mM inhibitor) [%] | Inhibition of tissue transglutaminase at an inhibitor concentration of 0.5 mM ([3]; 0.5 mM inhibitor) [%] | Inhibition of tissue transglutaminase at an inhibitor concentration of 5 mM ([3]; 5 mM inhibitor) [%] | other results |
| --- | --- | --- | --- | --- |
| O=CCC[C@H](NC(=O)OCc1ccccc1)C(=O)NCC(=O)O [γ-Aldehyde of carbobenzoxy-L-glutamylglycine] |  |  |  | Inhibition of factor XIIIa (fibrin crosslinking) [1]: cannot be inhibited; Inhibitor concentration at which guinea pig liver transglutaminase is inhibited [2]: 1 µM |
| NC(=O)NC[C@H](NC(=O)OCc1ccccc1)C(=O)NCC(=O)O [Carbobenzoxy-β-ureido-L-alanylglycine] |  |  |  | inhibition at 50 µM ([3]; 0.05 mM inhibitor, read-out: Inhibition of tissue transglutaminase at an inhibitor concentration of 0.05 mM): 0%; inhibition at 500 µM ([3]; 0.5 mM inhibitor, read-out: Inhibition of tissue transglutaminase at an inhibitor concentration of 0.5 mM): 0%; inhibition at 5000 µM ([3]; 5 mM inhibitor, read-out: Inhibition of tissue transglutaminase at an inhibitor concentration of 5 mM): 35% |
| CC(=O)OC[C@H](NC(=O)OCc1ccccc1)C(=O)NCC(=O)O [Carbobenzoxy-L-serylglycine β-acetate, Carbobenzoxy-L-serylqlycine β-acetate] (Cbz-Ser(Ac)-Gly-OH) | 0 | 0 | 0 |  |
| γ-Aldehyde of tert-butyloxycarbonyl-L-glutaminyl-L-glutaminyl-L-isoleucyl-L-valine |  |  |  | Inhibition of factor XIIIa (fibrin crosslinking) [1]: effective factor XIIIa inhibitor |
| CCOC(=O)CNC(=O)[C@H](COC=O)NC(=O)OCc1ccccc1 [Carbobenzoxy-β-(O-formyl)-L-serylglycine Ethyl Ester] (Cbz-Ser(For)-Gly-OEt) | 0 | 0 | 0 |  |
| Carbobenzoxy-β-(O-carbamoyl)-L-serylglycine Ethyl Ester | 0 | 0 | 0 |  |
| O=COC[C@H](NC(=O)OCc1ccccc1)C(=O)NCC(=O)O [Carbobenzoxy-L-serylglycine β-formate, Carbobenzoxy-L-serylglycine β-Formate] (Cbz-Ser(For)-Gly-OH) | 0 | 0 | 56 |  |
| O=C(O)CNC(=O)[C@H](COC(=O)CCl)NC(=O)OCc1ccccc1 [Carbobenzoxy-L-serylglycine β-Chloroacetate] (Cbz-Ser(ClAc)-Gly-OH) | 1 | 43 | 91 |  |
| CCOC(=O)CNC(=O)[C@H](COC(=O)CCl)NC(=O)OCc1ccccc1 [Carbobenzoxy-β-(O-chloroacetyl)-L-serylglycine Ethyl Ester] (Cbz-Ser(ClAc)-Gly-OEt) | 2 | 7 | 76 |  |
| CCOC(=O)CNC(=O)[C@H](COC(C)=O)NC(=O)OCc1ccccc1 [Carbobenzoxy-β-(O-acetyl)-L-serylglycine Ethyl Ester] (Cbz-Ser(Ac)-Gly-OEt) | 0 | 0 | 0 |  |
| CC(C)(C)OC(=O)CNC(=O)[C@H](CNC(N)=O)NC(=O)OCc1ccccc1 [Carbobenzoxy-β-(N-carbamoyl)-L-aminoalanylglycine tert-butyl Ester] | 0 | 0 | 0 |  |
